Measured values from the supplement of paper PMC10307832.

Legend:
Test in all cases: relative viability (nuclei count vs DMSO), 5 days (fraction); higher = more cells survive
[1] = tested on: NCI-H1355
Procedure, shortened: (§1)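 Lung cancer cell lines were pin-tool dosed in 1536-well plates on the day after seeding, with either a lone drug or a fixed anchor-drug dose plus five library-drug doses (not always all listed) in √10 steps. Nuclei were counted on 4× images after 5 days. Relative viability is the ratio of treated-well to vehicle-well nuclei counts, with each value a median of duplicate plates.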

[2] = tested on: NCI-H1703
Procedure, shortened: as §1

[3] = tested on: NCI-H520
Procedure, shortened: as §1

[4] = tested on: LC-2-ad
Procedure, shortened: as §1

[5] = tested on: NCI-H1299
Procedure, shortened: as §1

[6] = tested on: EBC-1
Procedure, shortened: as §1

[7] = tested on: LCLC-97TM1
Procedure, shortened: as §1

[8] = tested on: NCI-H23
Procedure, shortened: as §1

[9] = tested on: IA-LM
Procedure, shortened: as §1

[10] = tested on: NCI-H2347
Procedure, shortened: as §1

[11] = tested on: PC-3 [JPC-3]
Procedure, shortened: as §1

[12] = tested on: Calu-6
Procedure, shortened: as §1

[13] = tested on: A549
Procedure, shortened: as §1

Structure (SMILES): COCC1(CO)C(=O)C2CCN1CC2 (stereo unspecified) [PRIMA-1MET] + CC(C)C[C@H](NC(=O)[C@H](Cc1ccccc1)NC(=O)c1cnccn1)B(O)O [Bortezomib] (partner 0.002 µM)
- relative viability ([1]; first compound 0.2 µM): 1.26
- relative viability ([1]; first compound 0.6325 µM): 1.12
- relative viability ([1]; first compound 2 µM): 1.21
- relative viability ([1]; first compound 6.325 µM): 1.31
- relative viability ([1]; first compound 20 µM): 1.18
- relative viability ([2]; first compound 0.2 µM): 0.568
- relative viability ([2]; first compound 0.6325 µM): 0.369
- relative viability ([2]; first compound 2 µM): 0.311
- relative viability ([2]; first compound 6.325 µM): 0.142
- relative viability ([2]; first compound 20 µM): 0.049
- relative viability ([3]; first compound 0.2 µM): 0.545
- relative viability ([3]; first compound 0.6325 µM): 0.503
- relative viability ([3]; first compound 6.325 µM): 0.613
- relative viability ([3]; first compound 20 µM): 0.113
- relative viability ([4]; first compound 0.2 µM): 1.11
- relative viability ([4]; first compound 0.6325 µM): 0.981
- relative viability ([4]; first compound 2 µM): 0.695
- relative viability ([4]; first compound 6.325 µM): 1.07
- relative viability ([4]; first compound 20 µM): 0.91
- relative viability ([5]; first compound 0.2 µM): 1.06
- relative viability ([5]; first compound 0.6325 µM): 1.02
- relative viability ([5]; first compound 2 µM): 0.96
- relative viability ([5]; first compound 6.325 µM): 1.09
- relative viability ([5]; first compound 20 µM): 0.996
- relative viability ([6]; first compound 0.2 µM): 0.581
- relative viability ([6]; first compound 0.6325 µM): 0.549
- relative viability ([6]; first compound 2 µM): 0.572
- relative viability ([6]; first compound 6.325 µM): 0.544
- relative viability ([6]; first compound 20 µM): 0.136
- relative viability ([7]; first compound 0.2 µM): 0.526
- relative viability ([7]; first compound 0.6325 µM): 0.428
- relative viability ([7]; first compound 2 µM): 0.533
- relative viability ([7]; first compound 6.325 µM): 0.47
- relative viability ([7]; first compound 20 µM): 0.0592
- relative viability ([8]; first compound 0.2 µM): 0.966
- relative viability ([8]; first compound 0.6325 µM): 0.724
- relative viability ([8]; first compound 2 µM): 0.944
- relative viability ([8]; first compound 6.325 µM): 1.05
- relative viability ([8]; first compound 20 µM): 0.116
- relative viability ([9]; first compound 0.2 µM): 1.02
- relative viability ([9]; first compound 0.6325 µM): 0.648
- relative viability ([9]; first compound 2 µM): 0.831
- relative viability ([9]; first compound 6.325 µM): 0.989
- relative viability ([9]; first compound 20 µM): 0.903
- relative viability ([10]; first compound 0.2 µM): 1.33
- relative viability ([10]; first compound 0.6325 µM): 1.11
- relative viability ([10]; first compound 6.325 µM): 1.07
- relative viability ([10]; first compound 20 µM): 0.847
- relative viability ([11]; first compound 0.2 µM): 0.958
- relative viability ([11]; first compound 0.6325 µM): 0.688
- relative viability ([11]; first compound 2 µM): 0.874
- relative viability ([11]; first compound 6.325 µM): 0.858
- relative viability ([11]; first compound 20 µM): 0.792
- relative viability ([12]; first compound 0.2 µM): 1.11
- relative viability ([12]; first compound 0.6325 µM): 0.95
- relative viability ([12]; first compound 2 µM): 1.07
- relative viability ([12]; first compound 6.325 µM): 1.02
- relative viability ([12]; first compound 20 µM): 0.463

Structure (SMILES): COCC1(CO)C(=O)C2CCN1CC2 (stereo unspecified) [PRIMA-1MET] + CS(=O)(=O)CCNCc1ccc(-c2ccc3ncnc(Nc4ccc(OCc5cccc(F)c5)c(Cl)c4)c3c2)o1 [Lapatinib] (partner 2 µM)
- relative viability ([1]; first compound 0.2 µM): 1.12
- relative viability ([1]; first compound 0.6325 µM): 0.933
- relative viability ([1]; first compound 2 µM): 0.893
- relative viability ([1]; first compound 6.325 µM): 1
- relative viability ([1]; first compound 20 µM): 0.998
- relative viability ([2]; first compound 0.2 µM): 1.25
- relative viability ([2]; first compound 0.6325 µM): 0.834
- relative viability ([2]; first compound 2 µM): 1.01
- relative viability ([2]; first compound 6.325 µM): 1.04
- relative viability ([2]; first compound 20 µM): 0.145
- relative viability ([3]; first compound 0.2 µM): 0.792
- relative viability ([3]; first compound 0.6325 µM): 0.987
- relative viability ([3]; first compound 6.325 µM): 0.828
- relative viability ([3]; first compound 20 µM): 0.0834
- relative viability ([4]; first compound 0.2 µM): 1.15
- relative viability ([4]; first compound 0.6325 µM): 0.831
- relative viability ([4]; first compound 2 µM): 0.769
- relative viability ([4]; first compound 6.325 µM): 0.936
- relative viability ([4]; first compound 20 µM): 0.963
- relative viability ([5]; first compound 0.2 µM): 0.977
- relative viability ([5]; first compound 0.6325 µM): 0.996
- relative viability ([5]; first compound 2 µM): 0.969
- relative viability ([5]; first compound 6.325 µM): 0.99
- relative viability ([5]; first compound 20 µM): 0.947
- relative viability ([6]; first compound 0.2 µM): 0.22
- relative viability ([6]; first compound 0.6325 µM): 0.214
- relative viability ([6]; first compound 2 µM): 0.203
- relative viability ([6]; first compound 6.325 µM): 0.216
- relative viability ([6]; first compound 20 µM): 0.201
- relative viability ([7]; first compound 0.2 µM): 0.776
- relative viability ([7]; first compound 2 µM): 0.998
- relative viability ([7]; first compound 6.325 µM): 1.08
- relative viability ([7]; first compound 20 µM): 0.148
- relative viability ([8]; first compound 0.2 µM): 1.29
- relative viability ([8]; first compound 0.6325 µM): 0.951
- relative viability ([8]; first compound 2 µM): 0.897
- relative viability ([8]; first compound 6.325 µM): 0.961
- relative viability ([8]; first compound 20 µM): 0.117
- relative viability ([9]; first compound 0.2 µM): 0.686
- relative viability ([9]; first compound 0.6325 µM): 0.746
- relative viability ([9]; first compound 2 µM): 0.724
- relative viability ([9]; first compound 6.325 µM): 0.73
- relative viability ([9]; first compound 20 µM): 0.637
- relative viability ([10]; first compound 0.2 µM): 0.939
- relative viability ([10]; first compound 0.6325 µM): 0.856
- relative viability ([10]; first compound 2 µM): 0.57
- relative viability ([10]; first compound 6.325 µM): 0.918
- relative viability ([10]; first compound 20 µM): 1.06
- relative viability ([13]; first compound 0.2 µM): 1.07
- relative viability ([13]; first compound 0.6325 µM): 0.977
- relative viability ([13]; first compound 2 µM): 1.05
- relative viability ([13]; first compound 6.325 µM): 1.01
- relative viability ([13]; first compound 20 µM): 0.943
- relative viability ([11]; first compound 0.2 µM): 0.544
- relative viability ([11]; first compound 0.6325 µM): 0.392
- relative viability ([11]; first compound 2 µM): 0.456
- relative viability ([11]; first compound 6.325 µM): 0.447
- relative viability ([11]; first compound 20 µM): 0.478
- relative viability ([12]; first compound 0.2 µM): 1.14
- relative viability ([12]; first compound 0.6325 µM): 1.08
- relative viability ([12]; first compound 2 µM): 1.11
- relative viability ([12]; first compound 6.325 µM): 1.01
- relative viability ([12]; first compound 20 µM): 0.847
